Measurements from paper PMC7948422, “Repurposing p97 inhibitors for chemical modulation of the bacterial ClpB–DnaK bichaperone system” (The Journal of Biological Chemistry, 2020).
“Also recorded” adds a separate entry of the source.

Key:
DnaK = target: T1, DnaK (Escherichia coli, UniProt P0A6Y8); experiment: DnaK ATPase activity assay; type: biochemical; conditions: 100 µM DBeQ, 37 °C
T1 construct: full-length E. coli DnaK (residues 1–638); made in house; host or cells: E. coli BL21(DE3)
Protocol: To determine the ATPase activity of DnaK, 18 μl of DnaK solution or DnaK NBD solution prepared in buffer C was mixed with 1 μl of the investigated compounds or DMSO as a control. Samples without DnaK were used as control blanks. The samples were preincubated for 10 min at 37 °C. The reaction was initiated by adding 1 μl of 100-mM ATP bringing the final concentration of DnaK to 1.1 μM or DnaK NBD to 3.4 μM. The samples were incubated at 37 °C for 70 min for DnaK or 75 min for NBD. The concentration of inorganic phosphate produced from ATP in the presence of DnaK was determined as described above for ClpB.

p97 = tested on: p97; set-up: method as in PMID 25685910; conditions: cited from earlier work
ClpB E279Q/E678Q = target: T2, ClpB E279Q/E678Q (Escherichia coli, UniProt P63284, E279Q/E678Q); experiment: FITC-casein fluorescence anisotropy titration with ClpB E279Q/E678Q; type: binding
T2 construct: made in house
Protocol: To monitor interactions between casein and ClpB, we used FITC-casein and the substrate-trapping ClpB E279Q/E678Q variant ([52], [73]). The titration of FITC-casein with ClpB E279Q/E678Q in the presence of ATP or ADP and the fluorescence anisotropy measurements were performed as previously described ([65]).

ClpB W462F = target: T3, ClpB W462F (Escherichia coli, UniProt P63284, W462F); experiment: Surface plasmon resonance, immobilized ClpB W462F; type: binding
T3 construct: made in house
Protocol: ClpB, DnaK, and the NBD of DnaK were extensively dialyzed against the SPR buffer (20-mM Hepes, pH 7.4, 150-mM NaCl, 20-mM MgCl2, 1-mM EDTA, 1-mM DTT). After dialysis, the protein concentration was determined by the Bradford method. The DBeQ–protein interactions were studied using a Biacore T200 instrument (GE Healthcare) at 25 °C. The proteins were diluted to 300 μg/ml in 10-mM sodium acetate buffer (pH 5 for ClpB DnaK or pH 4 for NBD) and immobilized on HC1500M sensor chips (Xantec) by standard amine coupling chemistry as described previously ([70]). A reference flow cell was created by ethyl(dimethylaminopropyl) carbodiimide/N-hydroxysuccinimide activation followed by quenching with 1 M ethanolamine (pH 9.0). Solvent correction curves were obtained at the beginning and end and after every 50 injection cycles by injecting varying DMSO concentrations (4.0, 4.4, 4.6, 4.8, 5.0, 5.2, 5.4, and 5.9% [v/v]). All experiments were performed using a flow rate of 30 μl/min.
Binding isotherms were obtained with the ligand diluted to different concentrations in the SPR running buffer HBSMTD (20-mM Hepes, pH 7.4, 140-mM NaCl, 20-mM MgCl2, 5% (v/v) DMSO, 0.005% (v/v) Tween-20). Replicate injections were performed for all samples, and a buffer-only injection was performed for every 12 injection cycles. To test the structural integrity of ClpB after immobilization on the sensor chips, we performed control titrations with ATPγS and adenosine. The dissociation constants determined from those experiments were ∼20 μM for ATPγS and ∼2 mM for adenosine. […] Moreover, the immobilized ClpB discriminated between a nucleotide analog and a nucleoside, which indicated an adequate structural integrity of ClpB on the sensor chips.
The resulting sensorgrams were analyzed using Biacore T200 Evaluation Software v3.0 according to the following procedure. Solvent correction curves were generated and applied to all data sets, and all sensorgrams were double-referenced by subtracting the most recent buffer blank injection. […]

E. coli ClpB = target: T4, E. coli ClpB (Escherichia coli, UniProt P63284); type: biochemical
T4 construct: made in house
Protocol: To determine the ATPase activity, ClpB was diluted to 28 μg/ml (49-nM hexamer) in buffer C (50-mM Tris-HCl, pH 7.4, 20-mM MgCl2, 1-mM EDTA, 0.5-mM tris(2-carboxyethyl)phosphine [TCEP]). In some experiments, the ClpB solution was supplemented with 17.4 μg/ml (10 μM) κ-casein. The ClpB aliquots (18 μl) were mixed with 1 μl of the investigated compounds at different concentrations in 100% DMSO or with DMSO as a control. A sample without ClpB was used as a baseline control. After a 10-min preincubation at 37 or 45 °C, the ATP hydrolysis reaction was initiated by adding 1 μl of 100-mM ATP. The samples were incubated for 60 min (basal ClpB activity in the absence of κ-casein) or 15 min (in the presence of κ-casein) at 37 °C or 30 min at 45 °C in the absence of casein. For the E678Q ClpB variant, the incubation time in the presence of κ-casein was 60 min. After incubation, 15 μl of each sample was mixed with 200 μl of the ammonium molybdate/malachite green reagent ([67]) dispensed into a 96-well plate, followed by an addition of 30 μl of 34% sodium citrate ([68]). The plate was agitated inside a Synergy H1 reader (BioTek, Winooski, VT) for 15 min at room temperature, and the samples’ absorbance was measured at 630 nm. The readouts for ClpB-containing samples were corrected for absorbance of samples without ClpB, to account for nonenzymatic production of inorganic phosphate. A standard curve obtained with different inorganic phosphate concentrations was used to determine the amount of phosphate produced from ATP in the presence of ClpB.

Compound: c1ccc(CNc2nc(NCc3ccccc3)c3ccccc3n2)cc1 [DBeQ, N^2,N^4-dibenzylquinazoline-2,4-diamine]
- effect on DnaK ATPase activity (DnaK): did not detect inhibition; also recorded: did not affect
- IC50 (p97): ~3000 nM
- Kd (ClpB E279Q/E678Q): 78.5 nM
- effect on ATP-dependent binding of casein to ClpB (ClpB E279Q/E678Q; 80-μM DBeQ): did not inhibit
- Hill number of ClpB–FITC-casein binding with DBeQ (ClpB E279Q/E678Q; 80-μM DBeQ, 5-mM ATP): 1.48
- saturation signal of ClpB–FITC-casein binding with DBeQ (ClpB E279Q/E678Q; 80-μM DBeQ, 5-mM ATP): 0.11
- Kd (ClpB W462F): 61400 ± 4700 nM
- Bmax (SPR signal at saturation), ClpB W462F (ClpB W462F; SPR): 1.08 ± 0.03
- Hill coefficient, ClpB W462F (ClpB W462F; SPR): 2.4 ± 0.4
- inhibition of the basal ClpB ATPase (E. coli ClpB; 100 μM compound, no casein, 37 °C): None of the above compounds, except C3, showed a significant inhibition
- inhibition of the ClpB ATPase in the presence of casein (E. coli ClpB; 100 μM compound, with κ-casein, 37 °C): strongly inhibited
- effect on basal ClpB ATPase under heat-shock conditions (E. coli ClpB; 45 °C, no casein): unaffected; also recorded: does not inhibit
